Patent US20090081279A1, “Skin Dressings” (priority 2005, published 2009)

Tests used:
[1] = under normal conditions; cited from earlier work
moist skin = assay: Skin reddening (dermal vasodilation) after applying dried PVA layer with pre-generated GSNO onto moist skin; format: in vivo
Text: GSNO can be released from the layer simply by applying the layer onto a moist surface (e.g. wound bed). Once released, GSNO undergoes a slow decomposition to generate nitric oxide. The release of GSNO from the layer is relatively rapid.

[2] = Effect of pH on production/decomposition of GSNO in aqueous solution of potassium nitrite and L-glutathione; format: physicochemical
Procedure: The following reagents were prepared: • Reagent 1: Na-phosphate buffer (pH 7.4, 0.1 M) • Reagent 2: Griess reagent: 20 mg of N-(1-Naphthyl)ethylendiamine dihydrochloride (NADD)+500 mg of sulphanilamide dissolved in 2 mL of DMSO. (N.B. This solution is light sensitive and should be kept in the dark as much as possible) • Reagent 3: Mercuric chloride (10 mM) in DMSO (13.58 mg of HgCl2 in 5 mL of DMSO)
The six-step procedure set out below was then followed: • 1. Dispense 1.5 mL of Reagent 1 into a plastic cuvette • 2. Add 200 μL of the sample (i.e. sample in which GSNO concentration is to be determined) • 3. Add 1.17 mL of DI water • 4. Add 100 μL of Reagent 2 • 5. Add 30 μL of Reagent 3 and give the solution a good mix • 6. Read absorbance of the resulting mixture at 496 nm in 10 min.
The concentration of GSNO can be calculated from the absorbance reading using the molar absorption coefficient for GSNO=12,500 M^−1 cm^−1.
The rate of the GSNO production and subsequent decomposition in solutions containing potassium nitrite (5 mM) and L-glutathione (5 mM) was studied at pH 3 (citrate-phosphate buffer, 0.1 M), pH 5 (citrate-phosphate buffer, 0.1 M) and pH 7 (phosphate buffer, 0.1 M).

[3] = Stability of GSNO in dried PVA layer; format: physicochemical; conditions: in the dried layer of PVA, especially if stored in a moisture-free atmosphere
Procedure: In one preferred embodiment of this type, the dressing comprises a layer of dried PVA containing pre-generated S-nitrosothiol. The layer is formed from PVA, a source of nitrite (preferably potassium nitrite) and a thiol (preferably L-glutathione). In a typical example of this embodiment both of these additives are added to the PVA solution prior to the drying. S-nitrosothiol (GSNO in the preferred case) is generated within the layer during the drying step. Nitrosothiols are known to be rather unstable in aqueous solutions. Nevertheless, GSNO was found very stable in the dried layer of PVA, especially if stored in a moisture-free atmosphere.

[4] = under normal conditions; cited from earlier work; remark: listed apart in the source

Row | Initial production of GSNO ([2]; pH 5 compared with pH 3 (citrate-phosphate buffer, 0.1 M)) | Production of GSNO ([2]; pH 7 (phosphate buffer, 0.1 M), potassium nitrite 5 mM, L-glutathione 5 mM) | Stability of GSNO [3] | SMILES | Maximum solubility in water [1] | Reversibility of skin reddening (moist skin; after removal of the patch) | Time to reddening of the skin due to dermal vasodilation (moist skin; dried PVA layer with pre-generated GSNO applied onto moist skin) [min] | Stability of GSNO produced ([2]; pH 5 compared with pH 3) | Time to total (100%) decomposition [4]
1 |  |  |  | [N]=O [NO, Nitric oxide] | approximately 1.7 mM |  |  |  | 
2 | slower at pH 5 compared with pH 3 | No production | very stable | N[C@@H](CCC(=O)N[C@@H](CSN=O)C(=O)NCC(=O)O)C(=O)O [GSNO, S-nitrosoglutathione] |  | totally reversible | ≤ 1 | slightly higher at pH 5 compared with that at pH 3 | hours/days
